Assays:
[1] = tested on: Colonic Propulsive Motility; assay: Glass Bead Test (stretch-stimulated colonic propulsion); assay type: in vivo, mouse; details: for Expulsion Time Mean ± SEM: 30 minutes before bead, cutoff 30 minutes, in min
Description: In the test, usually performed in mice, a 3-mm glass bead is inserted through the anus into the distal colon (using a glass rod) to a depth of 2 cm. The time to expel the glass bead is then measured; normally, the glass bead is expelled in approximately 10 minutes. This model is especially sensitive to compounds with inhibitory effects on stretch-stimulated propulsive motor activity; as such, it is often used as an animal model for IBS. A test compound that inhibits stretch-stimulated-colonic propulsive motility may be used to treat gastrointestinal dysfunction, including IBS. Both enantiomerically-pure (R)- and (S)-tofisopam inhibited propulsive motility to a greater extent than the racemate.
The glass bead test is commmonly used to evaluate the ability of compounds to affect stimulated colonic propulsion. In the test, usually performed in mice, a 3-mm glass bead is inserted through the anus into the distal colon (using a glass rod) to a depth of 2 cm. The time to expel the glass bead is then measured; normally, the glass bead is expelled in approximately 10 minutes. This model is especially sensitive to compounds with inhibitory effects on stretch-stimulated propulsive motor activity; as such, it is often used as an animal model for IBS.
In each study, (RS)-, (R)- and (S)-tofisopam were evaluated for their ability to increase or decrease the time for expulsion of the glass bead. Test compounds were administered 30 minutes prior to insertion of the bead, and a maximum time cutoff of 30 minutes to expulsion was used.

[2] = tested on: Gastrointestinal Propulsive Motility; assay: Charcoal Meal Test (basal gastrointestinal propulsion); assay type: in vivo, rat; details: for % Inhibition (gastrointestinal propulsive motility): numbers in parentheses indicate % increase
Description: The charcoal meal test is a standard method for evaluating the effect of compounds on basal, nonstimulated propulsive motility of the stomach and small intestine. It is generally considered predictive of a compound's ability to inhibit or accelerate basal gastric propulsion in humans. In the test, usually performed in rats, nonactivated charcoal powder is administered by oral gavage. Sixty minutes after administration of the charcoal suspension, rats were sacrificed by CO2 inhalation, the stomach and small intestine were removed, and the distance between the pylorus and the furthest progression of the charcoal meal was measured and compared to the distance between the pylorus and the ileocecal junction. This model is especially sensitive to compounds with the ability to increase or decrease basal propulsive motor activity of the stomach and small intestine. It is therefore often used to predict the potential for compounds to exert antidiarrheal or anticonstipatory effects, as well as to predict the potential for compounds to produce diarrhea or constipation as a side-effect. Two charcoal meal test were performed in rats. In each study, (RS)-, (R)-and (S)-tofisopam were evaluated for their for their ability to increase or decrease the percent of the intestine traversed by a charcoal meal. Test compounds were administered 30 minutes prior to administration of the charcoal meal.

[3] = tested on: visceral hypersensitivity, pain, and bloating induced by colonic distension; assay: Visceral hypersensitivity, pain and bloating test (abdominal contractions after colonic distension and acetic acid); assay type: in vivo, rat; details: 32 mg/kg p.o.
Description: In yet another gastrointestinal disorder model, the visceral pain and bloating test, the ability of (R)- and (S)-tofisopam to inhibit abdominal contractions in the rat was investigated. (R)- and (S)-tofisopam were able to inhibit abdominal contractions to a greater extent than racemic tofisopam. The effects of (R)-tofisopam, (S)-tofisopam, and (RS)-tofisopam were evaluated for alleviating visceral hypersensitivity, pain, and bloating. […] Eur. J. Pharmacol. 324: 211-217 (1997); Langlois et al. Eur. J. Pharmacol. 318: 141-144 (1996)). The acetic acid makes the colon hypersensitive, modeling the visceral hypersensitivity seen in IBS. The colonic distension models the pain and bloating seen in IBS, and causes abdominal contractions in rats. In the control group 13.8±2.0 abdominal contractions were measured over the 10-minute period of observation.

[4] = tested on: stress-induced ulcer formation; assay: Water immersion stress-induced ulcers test; assay type: in vivo, rat; details: for Ulceration Index: ulcer score × percentage of stomachs showing ulcers; for Score for the Presence of Ulcers Mean ± SEM: score 0-4, N = 8

Structure (SMILES): CC[C@@H]1C(C)=NN=C(c2ccc(OC)c(OC)c2)c2cc(OC)c(OC)cc21 [(S)-tofisopam, (S)-1-(3,4-dimethoxyphenyl)-4-methyl-5-ethyl-7,8-dimethoxy-5H-2,3-benzodiazepine]
- % Inhibition (colonic expulsion) ([1]; 32 mg/kg IP): 100%
- Expulsion Time Mean ± SEM ([1]; 32 mg/kg IP): 30.0 ± 0.0
- % Inhibition (colonic expulsion) ([1]; 64 mg/kg IP): 100%
- Expulsion Time Mean ± SEM ([1]; 64 mg/kg IP): 30.0 ± 0.0
- % Intestine Traversed, Mean ± SEM ([2]; first experiment, 64 mg/kg IP): 75.7 ± 3.1%
- % Inhibition (gastrointestinal propulsive motility) ([2]; first experiment, 64 mg/kg IP): 7.1%
- % Intestine Traversed, Mean ± SEM ([2]; second experiment, 4 mg/kg IP): 79.1 ± 1.3%
- % Intestine Traversed, Mean ± SEM ([2]; second experiment, 8 mg/kg IP): 80.9 ± 1.9%
- % Intestine Traversed, Mean ± SEM ([2]; second experiment, 16 mg/kg IP): 73.3 ± 1.2%
- % Inhibition (gastrointestinal propulsive motility) ([2]; second experiment, 16 mg/kg IP): 1.9%
- % Intestine Traversed, Mean ± SEM ([2]; second experiment, 32 mg/kg IP): 60.8 ± 2.8 %
- % Inhibition (gastrointestinal propulsive motility) ([2]; second experiment, 32 mg/kg IP): 19.7%
- number of abdominal cramps ([3]; vehicle control 18.8±1.8 cramps): 10.4±1.3 cramps
- decrease of abdominal cramps ([3]; versus vehicle control): 45%
- Ulceration Index ([4]; 16 mg/kg IP): 313
- % of Stomachs Showing Ulcers ([4]; 32 mg/kg IP): 38%
- Score for the Presence of Ulcers Mean ± SEM ([4]; 32 mg/kg IP): 1.1 ± 0.4
- Ulceration Index ([4]; 32 mg/kg IP): 42
- % of Stomachs Showing Ulcers ([4]; 64 mg/kg IP): 38%
- Score for the Presence of Ulcers Mean ± SEM ([4]; 64 mg/kg IP): 1.3 ± 0.3
- Ulceration Index ([4]; 64 mg/kg IP): 47
